{
  "source": "paper PMC5259778",
  "about": "“Candidate pheromone receptors of codling moth Cydia pomonella respond to pheromones and kairomones” (Scientific Reports, 2017)",
  "key": {"[1]": {"system": "CpomOrco + OR complexes", "test": "Calcium imaging of HEK293T cells expressing heteromeric CpomOrco + OR complexes", "assay_type": "cell-based, Cydia pomonella", "details": "heteromeric complexes; peak amplitudes normalized to response at 1000 μM agonist; read-out: [A]1/2 half-effective concentration of agonist, calcium response", "experimental": "HEK293T cells were grown in HEK cell media [Dulbecco’s modified Eagle’s medium containing 10% fetal bovine serum (MP Biomedicals, Solon, OH, USA), 2.0 mM L-glutamine, and 100 μg/mL Penicillin/Streptomycin (Invitrogen)] at 37 °C and 5% CO2. To test transient expression of CpomORs for calcium imaging or patch-clamp recording experiments, 35-mm petri dishes containing semi-confluent HEK293T cells were transiently transfected. To transfect cells with CpomOrco, we used 1.0 μg of pcDNA5/TO/CpomOrco DNA. In order to promote expression of the OR[51], we used double aliquots for pcDNA5/TO/CpomOR DNAs (2.0 μg), combined with 1.0 μg of pcDNA5/TO/CpomOrco for co-transfections (CpomOrco + ORs). To report expression for calcium imaging experiments, 1.0 μg of a separate plasmid DNA [pEBFP2-Nuc, a gift from Robert Campbell (Addgene plasmid # 14893[52])] carrying the coding sequence for a blue fluorescent protein (BFP) was used. In patch-clamp recordings, 1.0 μg of a separate plasmid DNA (pXOOM, Clontech) carrying the coding sequence for a green fluorescent protein (GFP) was used to report expression. In order to report candidate OR-expressing cells, expression of both fluorescent reporter genes was under the regulation of the same promoter for CpomOR genes (CMV). Transfection DNAs were dissolved in 100 μL sterile DMEM, mixed with 3.0 μL Calfectin (SignaGen, Rockville, MD, USA) following the recommended protocol. To estimate transfection efficiency, a parallel transfection was conducted using the positive control vector pcDNA5/TO/LACZ (Invitrogen) and staining with 0.1% XGal[53]. […]\nFluorescence imaging was performed using Imaging Workbench 6 software (INDEC BioSystems, Santa Clara, CA, USA). Each cell was assigned a region of interest (ROI) and changes in fluorescence intensity within each ROI were measured and expressed as the fractional change in fluorescence intensity (dF) or in some cases as dF/F0 where F0 is the basal fluorescence level before agonist application. […] Continuous traces of multiple responses were compensated for slow drift of the baseline fluorescence when necessary. […]"}, "[2]": {"system": "Un-transfected cells (HEK293T)", "test": "Whole-cell patch-clamp recording of un-transfected HEK293T cells", "assay_type": "cell-based, human", "details": "12 cells tested", "experimental": "The OR channel activity was investigated using whole-cell and outside-out patch-clamp recordings. The currents were measured with a 200B patch-clamp amplifier (Molecular Devices) and a digital interface (Digidata 1320 A, Molecular Devices), low pass filtered at 5.0 kHz, sampled at 1-2 kHz. […] OR channel related currents were investigated at a holding potential of -50/+50 mV unless otherwise specified. The polarity of the currents/voltages was presented relative to intracellular membrane surface. Appropriate corrections for liquid junction potentials were made when necessary. Patch pipettes were fabricated from borosilicate capillary glass (BF150-86-10, Sutter Instrument, CA, USA) using a Flaming-Brown micropipette puller (P-87, Sutter Instrument). Only patches with initial cell-attached seal resistance estimated higher than 1.0 GOhms were used in the experiments. Intracellular (pipette) solution for whole-cell experiments was NaCl 140 mM, EGTA 0.5 mM, Hepes 10 mM, pH 7.4 (adjusted with Tris-base, standard Na^+ 140 mM), while bath solution was usually NaCl 140 mM, CaCl2 1.0 mM, MgCl2 0-1.0 mM, KCl 5.0 mM, Hepes 10 mM, pH 7.4 (adjusted with Tris-base or NaOH). The OR channel current noise was recorded using outside-out patches excised from HEK293T cells and evoked by stimulation with 250 μM VUAA3. […]"}},
  "data": [
    {"smiles": "CCn1c(SCC(=O)Nc2ccc(C(C)C)cc2)nnc1-c1ccncc1", "note": "[VUAA3, acetamide,2-[[4-ethyl-5-(4-pyridinyl)-4H-1,2,4-triazol-3-yl]thio]-N-[4-(1-methylethyl)phenyl]-]", "values": [
      {"measurement": "EC50", "setting": "[1]", "result": "~140", "unit": "µM"},
      {"measurement": "sensitivity of un-transfected cells", "setting": "[2]", "result": "not sensitive"}
    ]}
  ]
}
